Results reported in PMC7144554, “2-(Arylamino)-6-(trifluoromethyl)nicotinic Acid Derivatives: New HIV-1 RT Dual Inhibitors Active on Viral Replication” (Molecules, 2020).
Read-outs that look alike come from different tables or passages of the source.

Key:
[1] = test system: CEM cells; assay: Cell viability in CEM cells (MTT); type: cell-based; settings: highest concentration tested
Procedure: (§1) Drug-mediated inhibition of virus-induced cytotoxicity was assayed in TZM-BL cells. Triplicate wells of 96-well plates containing 1 × 10^4 TZMbl cells were infected with HIV-1 IIIB strain at a multiplicity of infection of 0.1. Serial dilutions of drugs were added immediately after infection. Luciferase activity was measured as reported. Two days after infection, the culture medium was removed from each well and 100 µl of Bright Glo reagent (Promega, Luis Obispo, CA) was added to the cells for measurement of luminescence using a Victor 2 luminometer (Perkin). The 50% effective concentration (EC50) was defined as the concentration that caused a 50% reduction of luciferase activity (relative light units) compared to virus control wells. Cell viability in CEM cells was quantified 5 days after infection with the MTT-dye reduction method.

[2] = Cell viability in CEM cells (MTT); type: cell-based; settings: human, MTT, 5 days
Procedure: as §1

[3] = biological target: T1, HIV-1 RT-associated RNase H activity (wt RT) (Human immunodeficiency virus type 1 group M subtype B, UniProt P04585); assay: HIV-1 DNA polymerase-independent RNase H activity, wt RT; type: biochemical; settings: for IC50: RNase H IC50, wt RT
T1 construct: RT is a heterodimeric (p66/p51) multifunctional enzyme; made in house; host or cells: Escherichia coli strain M15
Procedure: p6HRT-prot vector was kindly provided by Dr. Stuart Le Grice Laboratory. Heterodimeric RT was expressed essentially as described. Briefly, Escherichia coli strain M15 containing the p6HRT-prot vector were grown up to an OD600 of 0.7 and induced with isopropyl β-D-1-thiogalactopyranoside (IPTG) 1.7 mM for 4 h. Cell pellets were resuspended in Lysis buffer (50 mM sodium phosphate pH 7.8, 0.5 mg/mL lysozyme), incubated on ice for 20 min, added 0.3 M final NaCl, sonicated and centrifuged at 30,000× g for 1 h. The supernatant was loaded into a Ni^2+-sepharose column pre-equilibrated with loading buffer (50 mM sodium phosphate pH 7.8, 0.3 M NaCl, 10% glycerol, 10 mM imidazole) and washed thoroughly with wash buffer (50 mM sodium phosphate pH 6.0, 0.3 M NaCl, 10% glycerol, 80 mM imidazole). RT was gradient-eluted with elute buffer (wash buffer with 0.5 M imidazole). Fractions were collected, protein purity was checked by SDS-PAGE and found to be higher than 90%. RT containing fractions were pooled and diluted 1:1 with dilute buffer (50 mM sodium phosphate pH 7.0, 10% glycerol) then loaded into a Hi-trap Heparine HP GE (Healthcare Lifescience) pre-equilibrated with 10-column volume of loading buffer 2 (50 mM sodium phosphate pH 7.0, 10% glycerol, 150 mM NaCl). Column was then washed with loading buffer 2 and RT was gradient-eluted with elute buffer 2 (50 mM sodium phosphate pH 7.0, 10% glycerol, 150 mM NaCl). Fractions were collected, protein was dialyzed and stored in buffer containing 50 mM Tris HCl pH 7.0, 25 mM NaCl, 1 mM EDTA, 50% glycerol. Catalytic activities and protein concentration were determined. Enzyme-containing fractions were pooled and aliquots were stored at −80 °C.
(§2) The RT-associated RNase H activity of wt and mutated HIV RTs was measured as described, in 100 µL reaction volume containing 50 mM Tris HCl pH 7.8, 6 mM MgCl2, 1 mM dithiothreitol (DTT), 80 mM KCl, hybrid RNA/DNA (5’-[…]-3’-Fluorescein, 5’-[…]-3’-Dabcyl), and different amounts of enzymes according to a linear range of dose-response curve—20 ng of wt RT; 50 ng K103N RT; 100 ng V108A RT; 4 ng Y181C RT; 100 ng Q475A RT; 100 ng A502F RT. The reaction mixture was incubated for 1 h at 37 °C, the reaction was stopped by addition of EDTA and products were measured with a Victor 3 (Perkin) at 490/528 nm.

[4] = test system: TZMbl cells; assay: Cytotoxicity in TZMbl cells; type: cell-based; settings: highest concentration tested
[5] = Cytotoxicity in TZMbl cells; type: cell-based; settings: human
[6] = test system: HIV-1 IIIB strain; assay: Antiviral assay, HIV-1 replication in TZMbl cells (luciferase); type: cell-based; settings: for EC50: read-out: HIV-1 EC50 TZMbl Cells
Procedure: Drug-mediated inhibition of virus-induced cytotoxicity was assayed in TZM-BL cells. […] Serial dilutions of drugs were added immediately after infection. Luciferase activity was measured as reported [67]. Two days after infection, the culture medium was removed from each well and 100 µl of Bright Glo reagent (Promega, Luis Obispo, CA) was added to the cells for measurement of luminescence using a Victor 2 luminometer (Perkin). […] Cell viability in CEM cells was quantified 5 days after infection with the MTT-dye reduction method.

[7] = biological target: T2, Q475A RT RNase H function (Human immunodeficiency virus type 1 group M subtype B, UniProt P04585, Q1062A); assay: RNase H activity of mutated RT Q475A; type: biochemical, HIV-1
T2 construct: Amino acid substitutions were introduced into the p66 HIV-1 RT subunit coded in a p6HRT-prot plasmid; made in house; host or cells: Escherichia coli strain M15
Procedure: (§3) Amino acid substitutions were introduced into the p66 HIV-1 RT subunit coded in a p6HRT-prot plasmid using the QuikChange protocol (Agilent Technologies Inc., Santa Clara, CA).
as §2

[8] = biological target: T3, V108A RT RNase H function (Human immunodeficiency virus type 1 group M subtype B, UniProt P04585, V695A); assay: RNase H activity of mutated RT V108A; type: biochemical, HIV-1; settings: read-out: RNase H IC50; V108A RT
T3 construct: Amino acid substitutions were introduced into the p66 HIV-1 RT subunit coded in a p6HRT-prot plasmid; made in house; host or cells: Escherichia coli strain M15
Procedure: as §3, §2

[9] = biological target: T4, A502F RT RNase H function (Human immunodeficiency virus type 1 group M subtype B, UniProt P04585, A1089F); assay: RNase H activity of mutated RT A502F; type: biochemical, HIV-1; settings: A502F RT
T4 construct: Amino acid substitutions were introduced into the p66 HIV-1 RT subunit coded in a p6HRT-prot plasmid; made in house; host or cells: Escherichia coli strain M15
Procedure: as §3, §2

[10] = Human immunodeficiency virus 1, TZM-bl, TZMbl cells, HIV-1 IIIB

Structure (SMILES)	percentage of cells viability in presence of the highest concentration of inhibitor tested, CEM cells [1] [%]	CC50 at 5 days [2] [µM]	IC50 [3] [µM]	percentage of cells viability in presence of the highest concentration of inhibitor tested, TZMbl [4] [%]	CC50 [5] [µM]	EC50 [6, 10] [µM]	melting point [°C]	SI (selectivity index) ([6]; TZMbl cells)	EC50 ([6]; Human immunodeficiency virus 1, IIIB, TZM-bl) [µM]	IC50 [7] [µM]	RNase H Fold ([7]; Q475A RT, vs wt RT)	RNase H Fold ([3]; WT RT)	IC50 [8] [µM]	IC50 ([9]; read-out: RNase H IC50) [µM]	RNase H Fold ([9]; vs wt RT)
COc1ccc(OC(=O)c2ccc(C(F)(F)F)nc2Nc2cc(Cl)ccc2C)cc1 [Compound 23]	100	> 50	11.6 ± 4.3	70	> 50	> 10									
Cc1ccc(Cl)cc1Nc1nc(C(F)(F)F)ccc1C(=O)Oc1cccc(O)c1 [Compound 17, 3-Hydroxyphenyl 2-((5-chloro-2-methylphenyl)amino)-6-(trifluoromethyl)nicotinate]	100	> 50	26.6 ± 5.6	62	> 50	> 50	188 to 190								
Cc1ccc(Cl)cc1Nc1nc(C(F)(F)F)ccc1C(=O)Oc1ccc(Cl)cc1 [Compound 13]	70	> 50	9.3 ± 2.5		36 ± 1	10		3.6							
COc1ccccc1CNC(=O)c1ccc(C(F)(F)F)nc1Nc1cc(Cl)ccc1C [Compound 39, 2-((5-Chloro-2-methylphenyl)amino)-N-(2-methoxybenzyl)-6-(trifluoromethyl)nicotinamide]	55	> 12.5	18.7 ± 1.7		14.8 ± 3.1	> 10	148 to 150								
Cc1ccc(Cl)cc1Nc1nc(C(F)(F)F)ccc1C(=O)N1CCN(c2ccc(Cl)c(Cl)c2)CC1 [Compound 52, (2-((5-Chloro-2-methylphenyl)amino)-6-(trifluoromethyl)pyridin-3-yl)(4-(3,4-dichlorophenyl)piperazin-1-yl)methanone]	76	> 50	7.5 ± 2		15.7 ± 5.1	10 ± 1.2	165 to 167	1.6							
Cc1ccc(Cl)cc1Nc1nc(C(F)(F)F)ccc1C(=O)Oc1ccccc1O [Compound 16, 2-Hydroxyphenyl 2-((5-chloro-2-methylphenyl)amino)-6-(trifluoromethyl)nicotinate]	100	> 12.5	16.2 ± 6.6		12.2 ± 2.1	> 10	179 to 180								
CSc1ccc(OC(=O)c2ccc(C(F)(F)F)nc2Nc2cc(Cl)ccc2C)cc1 [Compound 24, 4-(Methylthio)phenyl 2-((5-chloro-2-methylphenyl)amino)-6-(trifluoromethyl)nicotinate]	100	> 50	9.6 ± 0.8		50	> 10	125 to 127								
Cc1ccc(Cl)cc1Nc1nc(C(F)(F)F)ccc1C(=O)NCc1ccc(Cl)cc1 [Compound 40, N-(4-chlorobenzyl)-2-((5-chloro-2-methylphenyl)amino)-6-(trifluoromethyl)nicotinamide]		7.75	6.4 ± 0.5		4.7 ± 0.4	> 4.7	130 to 131								
Cc1ccc(Cl)cc1Nc1nc(C(F)(F)F)ccc1C(=O)NCc1ccc(Cl)c(Cl)c1 [Compound 46, 2-((5-Chloro-2-methylphenyl)amino)-N-(3,4-dichlorobenzyl)-6-(trifluoromethyl)nicotinamide]		10.6	25.6 ± 3.4		6.3 ± 1.3	> 6.3	179 to 180								
O=C1Nc2ccc(Cl)cc2[C@@](C#CC2CC2)(C(F)(F)F)O1 [EFV, efavirenz, reference compound]	100	> 50		100	> 50				0.15 ± 0.02						
Cc1ccc(Cl)cc1Nc1nc(C(F)(F)F)ccc1C(=O)NCc1ccc(C(F)(F)F)cc1 [Compound 42, 2-((5-Chloro-2-methylphenyl)amino)-6-(trifluoromethyl)-N-(4-(trifluoromethyl)benzyl)nicotinamide]		5	21.9 ± 0.2		3.6 ± 1.2	> 3.6	170 to 171								
CC(C)c1ccc(O)c(=O)c(O)c1 [BTP, beta-Thujaplicinol, reference compound]										0.19 ± 0.03	1.0	1	0.34 ± 0.4	0.17 ± 0.03	0.9
CCOC(=O)c1ccc(C(F)(F)F)nc1Nc1cc(Cl)ccc1C [Compound 9]	100	> 50	24 ± 1.7	75	> 50	> 10									
